The text below walks through data of US8980833B2, “Tubulysine derivatives” (priority 2007, dated 2015).

Holding throughout (type): cell-based
The subject of one assay is HT-29 (colon) cells. The assay can be described thus: MTS cell survival assay, HT-29 (colon). As to conditions: 48 hours incubation, read-out: IC50 cell line HT-29. The procedure: (§1) Seed 96-well plates at a concentration of 5000 cells/well in a volume of 100 μl with A2780 (ovarian), HT-29 (colon), MDA-MB-231 (breast), NCI-H1299 (non-small cell lung, MCF-7 (breast) cells or any other available cancer cell line. Incubate for 24 hours at 37° C.
(§2) Prepare a stock solution of Tubulysin derivative by dissolving at 10 mg/ml in methanol. Prepare dilutions of 1 mg/ml in methanol and 17 μg/ml (20 μM) in cell culture medium, and make serial 10-fold dilutions down to 2 pM in cell culture medium.
(§3) Add 100 μl of Tubulysin to triplicate wells for a final dose range of 1 pM to 10 μM. Reserve three wells for “untreated” cells and three wells of medium alone as a “blank”. Incubate plates at 37° C. for 48 hours.
(§4) Prepare MTS assay reagent by diluting CellTiter 96 AQueous One Solution (Promega) 5-fold into PBS/glucose (4.5 g/L). Aspirate cell culture medium. Aliquot 100 μl of MTS reagent to each well. Incubate at 37° C. for 1-2 hours depending on the cell line.
(§5) Shake the plates for 5 minutes and measure the absorbance at 485 nm using a plate reader (e.g. Tecan). Enter the raw data into an excel spreadsheet to obtain the % cell survival for each cell line. Graph dose (nM) vs. % cell survival and estimate IC50s from the graphs.
(§6) Use a 4-parameter logistic fit to obtain IC50 values: y=(a−d)/(1+(x/c)^b)+d • where • x=dose • y=% cell survival • a=lower asymptote • b=slope • c=IC50 • d=upper asymptote
(§7) Enter values for x and y. Estimate values for a, b, c, and d. Run the solver tool on the sum of squared errors cell. Minimize the sum of squared errors by varying parameters a through d. Obtain the IC50 (nM) from parameter c.

Another assay relates to A2780 (ovarian) cells. As to the kind of experiment: MTS cell survival assay, A2780 (ovarian). As to conditions: 48 hours incubation, read-out: IC50 cell line A2780. As to the method: as §1, §2, §3, §4, §5, §6, §7
The test system of the next assay is MCF-7 (breast) cells. As to the kind of experiment: MTS cell survival assay, MCF-7 (breast). As to conditions: read-out: IC50 cell line MCF-7. As to the method:
as §1, §2, §3, §4, §5, §6, §7

Assay [1] concerns NCI-H1299 (non-small cell lung) cells. As to the kind of experiment: MTS cell survival assay, NCI-H1299 (non-small cell lung). The conditions noted are these: Homo sapiens, 48 hours incubation, read-out: IC50 cell line NCI-H1299. As to the method:
as §1, §2, §3, §4
Shake the plates for 5 minutes and measure the absorbance at 485 nm using a plate reader (e.g. Tecan). Enter the raw data into an excel spreadsheet to obtain the % cell survival for each cell line. Graph dose (nM) vs. % cell survival and estimate IC50s from the graphs. […]
(Tetrazolium dyes change colour on reduction, which living cells bring about.)

Where [2] appears, read: Homo sapiens, MCF7, 48 hours incubation.

Where two headings read alike, the source gives them in different places.

As for `CC[C@H](C)C(NC(=O)C1CCCCN1C)C(=O)N(C)[C@H](C[C@@H](OC(C)=O)c1nc(C(=O)N[C@@H](Cc2ccc(OC)cc2)C[C@H](C)C(=O)O)cs1)C(C)C` (stereo partly shown), the IC50 (usually the concentration needed to halve the response being measured) in the assay on HT-29 (colon) cells (Homo sapiens) worked out at 2000 pM; in the assay on A2780 (ovarian) cells (Homo sapiens), 800 pM; in the assay with MCF-7 (breast) cells (setting [2]), 600 pM.
On to `CCCN(C(=O)C(NC(=O)C1CCCCN1C)[C@@H](C)CC)[C@H](CCc1nc(C(=O)N[C@H](CCC(=O)O)Cc2ccccc2)cs1)C(C)C` (stereo partly shown), for which the IC50 was 3100 pM in the assay on HT-29 (colon) cells (Homo sapiens) and 1100 pM in the assay with A2780 (ovarian) cells (Homo sapiens).
As for `CCCN(C(=O)C(NC(=O)C1CCCCN1C)[C@@H](C)CC)[C@H](C[C@@H](OC(C)=O)c1nc(C(=O)N[C@H](CCC(=O)O)Cc2ccc(F)cc2)cs1)C(C)C` (stereo partly shown), the IC50 in the assay with HT-29 (colon) cells (Homo sapiens) is 490 pM; in the assay on A2780 (ovarian) cells (Homo sapiens), 300 pM.
As for `CC[C@H](C)C(NC(=O)C1CCCCN1C)C(=O)N(C)[C@H](C[C@@H](OC(C)=O)c1nc(C(=O)N[C@@H](Cc2ccc(-c3ccccc3)cc2)C[C@H](C)C(=O)O)cs1)C(C)C` (stereo partly shown), the IC50 in the assay on HT-29 (colon) cells (Homo sapiens) worked out at 2300 pM; in the assay with A2780 (ovarian) cells (Homo sapiens), 1400 pM.
On to `CCCN(C(=O)C(NC(=O)C1CCCCN1C)[C@@H](C)CC)[C@H](CCc1nc(C(=O)N[C@H](CCCO)Cc2ccccc2)cs1)C(C)C` (stereo partly shown), for which the IC50 is 4300 pM with HT-29 (colon) cells (Homo sapiens) and 1600 pM in the assay on A2780 (ovarian) cells (Homo sapiens).
On to `CCCN(C(=O)C(NC(=O)C1CCCCN1C)[C@@H](C)CC)[C@H](C[C@@H](OC(C)=O)c1nc(C(=O)N[C@@H](Cc2ccc(-c3ccccc3)cc2)C[C@H](C)C(=O)O)cs1)C(C)C` (stereo partly shown), for which the IC50 in the assay on HT-29 (colon) cells (Homo sapiens) was found to be 280 pM; in the assay on MCF-7 (breast) cells (setting [2]), 400 pM.
On the same counts, the results for `CCCCCN(C(=O)C(NC(=O)C1CCCCN1C)[C@@H](C)CC)[C@H](C[C@@H](OC(C)=O)c1nc(C(=O)N[C@@H](Cc2ccc(F)cc2)C[C@H](C)C(=O)O)cs1)C(C)C` (stereo partly shown) are 350 pM and 600 pM.
For the compound `CC[C@H](C)C(NC(=O)C1CCCCN1C)C(=O)N(COCC(C)C)[C@H](C[C@@H](OC(C)=O)c1nc(C(=O)N[C@@H](Cc2ccc(F)cc2)C[C@H](C)C(=O)O)cs1)C(C)C` (stereo partly shown), the results for the IC50 with HT-29 (colon) cells (Homo sapiens), in the assay with A2780 (ovarian) cells (Homo sapiens) and with MCF-7 (breast) cells (setting [2]) were 3500 pM, 900 pM and 1100 pM, respectively.
`CC[C@H](C)C(NC(=O)C1CCCCN1C)C(=O)N(CC)[C@H](C[C@@H](O)c1nc(C(=O)N[C@H](CCN)Cc2ccc(F)cc2)cs1)C(C)C` (stereo partly shown): the IC50 with HT-29 (colon) cells (Homo sapiens) came out at 23000 pM; in the assay with MCF-7 (breast) cells (setting [2]), 15200 pM.
With `CC[C@H](C)C(NC(=O)C1CCCCN1C)C(=O)N(C)[C@H](C[C@@H](OC(C)=O)c1nc(C(=O)N[C@@H](Cc2ccc(F)cc2)C[C@H](C)C(=O)O)cs1)C(C)C` (stereo partly shown), the IC50 in the assay on HT-29 (colon) cells (Homo sapiens) is 3000 pM; in assay [1], 1930 pM; with A2780 (ovarian) cells (Homo sapiens), 800 pM.
As for `CC(=O)O[C@H](C[C@H](C(C)C)N(COC(=O)c1ccccc1)C(=O)C(NC(=O)C1CCCCN1C)C(C)C)c1nc(C(=O)N[C@H](CCC(=O)O)Cc2ccc(F)cc2)cs1` (stereo partly shown), the values for the IC50 in the assay with HT-29 (colon) cells (Homo sapiens) and in the assay with MCF-7 (breast) cells (setting [2]) were 450 pM and 400 pM, respectively.
On to `CCCCCCN(C(=O)C(NC(=O)C1CCCCN1C)[C@@H](C)CC)[C@H](C[C@@H](OC(C)=O)c1nc(C(=O)N[C@@H](Cc2ccc(OC)cc2)C[C@H](C)C(=O)O)cs1)C(C)C` (stereo partly shown), for which the IC50 in the assay with HT-29 (colon) cells (Homo sapiens) amounted to 430 pM.
As for `CC[C@H](C)C(NC(=O)C1CCCN1C)C(=O)N(C)[C@H](C[C@@H](OC(C)=O)c1nc(C(=O)N[C@@H](Cc2ccc(F)cc2)C[C@H](C)C(=O)O)cs1)C(C)C` (stereo partly shown), the values for the IC50 in the assay on HT-29 (colon) cells (Homo sapiens) and in the assay on MCF-7 (breast) cells (setting [2]) were 3100 pM and 1100 pM, respectively.
For the compound `CC[C@H](C)C(NC(=O)C1CCCN1C)C(=O)N(C)[C@H](C[C@@H](OC(C)=O)c1nc(C(=O)N[C@@H](Cc2ccc(N(C)C)cc2)C[C@H](C)C(=O)O)cs1)C(C)C` (stereo partly shown), the IC50 was determined as 2100 pM in the assay on HT-29 (colon) cells (Homo sapiens) and 700 pM in the assay on A2780 (ovarian) cells (Homo sapiens).
Regarding `CC[C@H](C)C(NC(=O)C1CCCCN1C)C(=O)N(COC(=O)CC(C)C)[C@H](C[C@@H](OC(C)=O)c1nc(C(=O)N[C@@H](Cc2ccc(O)cc2)C[C@H](C)C(=O)O)cs1)C(C)C` (stereo partly shown), the IC50 was found to be 750 pM in the assay on HT-29 (colon) cells, 800 pM with A2780 (ovarian) cells and 600 pM with MCF-7 (breast) cells (48 hours incubation).
Regarding `CCCN(C(=O)C(NC(=O)C1CCCCN1C)[C@@H](C)CC)[C@H](C[C@@H](OC(C)=O)c1nc(C(=O)N[C@@H](Cc2ccc(F)cc2)C[C@H](C)C(=O)O)cs1)C(C)C` (stereo partly shown), the IC50 in the assay on HT-29 (colon) cells (Homo sapiens) was 480 pM; in assay [1], 520 pM; in the assay with A2780 (ovarian) cells (Homo sapiens) it was 300 pM; in the assay with MCF-7 (breast) cells (setting [2]), 400 pM.
